Experimental data: US11117901B2, “Substituted pyrazolo[4,3-h]quinazolines as choline kinase inhibitors” (NERVIANO MEDICAL SCIENCES S.R.L., priority 2017, dated 2021)
pIC50: −log10 of the molar value.

Tests used:
[1] = molecular target: T1, Δ49N-hChoKα (Homo sapiens, UniProt P35790); assay: Biochemical kinase inhibition assay (Kinase-Glo luminescent) on Δ49N-hChoKα; conditions: recombinant Δ49N-hChoKα 2.2 nM, ATP 5 μM, choline 5 μM, 60 min rt; read-out: ChoKα IC50
T1 construct: cDNA fragment 362-1534, corresponding to aminoacids 50 457; GST (N, cleaved yes); PreScission Protease recognition site (N); made in house; host or cells: Escherichia coli BL21pLysS (DE3)
In short: (§1)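 Kinase-Glo residual-ATP luminescence with in-house E. coli-expressed, tag-cleaved enzymes: Δ49N-hChoKα 2.2 nM with 5 μM choline; hChoKβ FL 30 nM with 20 μM choline. Both used 5 μM ATP, 60 min at room temperature, 1% DMSO, pH 7.5 Hepes buffer. IC50 from 4-parameter fits of ten 3-fold dilutions from 10 μM.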

[2] = molecular target: T2, hChoKβ FL (Homo sapiens, UniProt Q9Y259); assay: Biochemical kinase inhibition assay (Kinase-Glo luminescent) on hChoKβ FL; conditions: recombinant hChoKβ FL 30 nM, ATP 5 μM, choline 20 μM, 60 min rt; read-out: ChoKβ IC50
T2 construct: hChoKβ full length (FL), corresponding to aminoacids 2-395; GST (N, cleaved yes); PreScission Protease recognition site (N); made in house; host or cells: Escherichia coli BL21pLysS (DE3)
In short: as §1

T2 sequence (Q9Y259 2-395): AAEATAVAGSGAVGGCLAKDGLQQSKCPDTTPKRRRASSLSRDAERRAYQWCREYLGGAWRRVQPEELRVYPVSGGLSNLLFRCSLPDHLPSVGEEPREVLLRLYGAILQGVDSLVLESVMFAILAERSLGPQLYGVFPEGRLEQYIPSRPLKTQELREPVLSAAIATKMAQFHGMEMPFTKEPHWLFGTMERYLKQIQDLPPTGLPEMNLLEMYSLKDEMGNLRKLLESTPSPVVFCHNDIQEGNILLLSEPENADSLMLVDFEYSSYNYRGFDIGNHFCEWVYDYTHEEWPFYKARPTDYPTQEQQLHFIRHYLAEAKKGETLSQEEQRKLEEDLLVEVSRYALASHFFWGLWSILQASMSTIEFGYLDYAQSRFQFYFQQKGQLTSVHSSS
T1 sequence (P35790 50-439 isoform P35790-2): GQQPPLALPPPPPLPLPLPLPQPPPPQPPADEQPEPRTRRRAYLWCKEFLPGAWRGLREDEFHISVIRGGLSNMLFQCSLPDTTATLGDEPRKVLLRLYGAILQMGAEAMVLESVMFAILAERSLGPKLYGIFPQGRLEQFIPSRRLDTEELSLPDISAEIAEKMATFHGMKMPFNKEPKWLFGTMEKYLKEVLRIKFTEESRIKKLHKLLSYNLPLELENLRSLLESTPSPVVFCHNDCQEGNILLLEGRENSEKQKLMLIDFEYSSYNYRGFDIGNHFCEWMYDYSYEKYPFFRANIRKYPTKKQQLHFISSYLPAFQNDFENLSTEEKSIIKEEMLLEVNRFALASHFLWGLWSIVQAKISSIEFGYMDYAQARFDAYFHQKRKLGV

SMILES | pIC50 [1] | pIC50 [2]
CC1(C)Cc2cnc(N)nc2-c2[nH]nc(C(=O)Nc3nc(COC4CCN(C5CCCCCC5)CC4)cs3)c21 [compound 223] | 8.40 | 6.74
CC1(C)Cc2cnc(N)nc2-c2[nH]nc(C(=O)Nc3nc(C4(C(=O)O)CC4)cs3)c21 [compound 129] | 6.66 | < 5.00
CC1CCCN(C2CCN(C(=O)Cc3csc(NC(=O)c4n[nH]c5c4C(C)(C)Cc4cnc(N)nc4-5)n3)CC2)C1 (stereo not drawn) [compound 224] | 8.30 | 6.67
CC1(C)CCC(N2CCC(OCc3csc(NC(=O)c4n[nH]c5c4C(C)(C)Cc4cnc(N)nc4-5)n3)CC2)CC1 [compound 221] | 8.00 | 6.11
CC1(C)Cc2cnc(N)nc2-c2[nH]nc(C(=O)Nc3ccc(C(=O)N4CCC(N5CCCCC5)CC4)cc3)c21 [compound 20] | 7.62 | 7.12
CN(C)[C@@H]1CCN(C(=O)C2(c3csc(NC(=O)c4n[nH]c5c4C(C)(C)Cc4cnc(N)nc4-5)n3)CC2)C1 [compound 130] | 6.27 | < 5.00
CC1(C)Cc2cnc(N)nc2-c2[nH]nc(C(=O)Nc3ccc(OC(F)(F)F)cc3)c21 [compound 3] | 6.00 | < 5.00
CC1(C)Cc2cnc(N)nc2-c2[nH]nc(C(=O)Nc3ccc(C(=O)NC4CCOCC4)cc3)c21 [compound 11] | 6.71 | 6.40
CC1(C)Cc2cnc(N)nc2-c2[nH]nc(C(=O)Nc3cccc(C(=O)O)c3)c21 [compound 18] | 6.19 | 5.20
CC1(C)CCCN(C2CCN(C(=O)Cc3csc(NC(=O)c4n[nH]c5c4C(C)(C)Cc4cnc(N)nc4-5)n3)CC2)C1 [compound 219] | 8.70 | 6.53
CC1(C)Cc2cnc(N)nc2-c2[nH]nc(C(=O)Nc3ccc(O)cc3)c21 [compound 105] | 6.64 | 6.40
CC1(C)Cc2cnc(N)nc2-c2[nH]nc(C(=O)Nc3ccc(C(=O)N4CCC(N5CCC(F)(F)CC5)CC4)cc3)c21 [compound 51] | 6.82 | 6.56
CC1(C)Cc2cnc(N)nc2-c2[nH]nc(C(=O)Nc3nc(COC4CCN(C5CCCCCC5)CC4)cs3)c21 [compound 209] | 8.30 | 6.64
CC1CCN(C2CCN(C(=O)Cc3csc(N(C)C(=O)c4n[nH]c5c4C(C)(C)Cc4cnc(N)nc4-5)n3)CC2)CC1 [compound 123] | 7.28 | < 5.00
CC1CCN(C2CCN(C(=O)Cc3csc(NC(=O)c4nn(C)c5c4CC(C)(C)c4cnc(N)nc4-5)n3)CC2)CC1 [compound 225] | 8.05 | 5.65
CNC1CCN(C(=O)Cc2csc(NC(=O)c3n[nH]c4c3C(C)(C)Cc3cnc(N)nc3-4)n2)CC1 [compound 119] | 7.28 | 7.18
CC1(C)Cc2cnc(N)nc2-c2[nH]nc(C(=O)Nc3nc(CC(=O)O)cs3)c21 [compound 42] | 7.27 | < 5.00
CC1(C)Cc2cnc(N)nc2-c2[nH]nc(C(=O)Nc3ncc(C(=O)O)s3)c21 [compound 82] | 6.52 | 5.76
CC1(C)Cc2cnc(N)nc2-c2[nH]nc(C(=O)Nc3nc(CC(=O)N4CCC(N5CCCCCC5)CC4)cs3)c21 [compound 47] | 8.70 | 7.07
CC1(C)Cc2cnc(N)nc2-c2[nH]nc(C(=O)Nc3nc(CC(=O)N4CC[C@H](O)C4)cs3)c21 [compound 88] | 6.85 | < 5.00
CC1(C)Cc2cnc(N)nc2-c2[nH]nc(C(=O)Nc3nc(CC(=O)N4CCC(C(N)=O)CC4)cs3)c21 [compound 90] | 6.79 | < 5.00
CC1(C)Cc2cnc(N)nc2-c2[nH]nc(C(=O)Nc3cccc(C=O)c3)c21 [compound 107] | 6.13 | 5.57
CC(C)(C)OC(=O)NC1CCN(C(=O)Cc2csc(NC(=O)c3n[nH]c4c3C(C)(C)Cc3cnc(N)nc3-4)n2)CC1 [compound 43] | 8.15 | 5.99
CN1CCC(NC(=O)c2ccc(CNC(=O)c3n[nH]c4c3C(C)(C)Cc3cnc(N)nc3-4)cc2)CC1 [compound 166] | 6.87 | 6.87
